Drawing on patent publication US6800418B2, “Fluorine-containing photosensitive polymer having hydrate structure and resist composition comprising the same” (Samsung Electronics, priority 2001, dated 2004), this text covers pKa for five molecules.

Broadly, the pKa is the negative logarithm of the acid dissociation constant. Lower therefore signals a stronger acid or weaker base.

A short description of this data set: Measurement of pKa Value. The conditions noted are these: pKa value of monomers, measured to identify whether the structure is dissolvable in developers. Format: physicochemical. How it is done: To determine whether a repeating monomer unit of a polymer according to the present invention has a structure dissolvable in common developers, pKa value was measured.
The pKa value was measured for a variety of monomers having different structures to identify whether hydrate is dissolvable in developers.

Molecule `C=Cc1ccc(C(O)(C(F)(F)F)C(F)(F)F)cc1` [MONOMER 5] returned a pKa of 8.96.
In the case of `OC(CC1CC2C=CC1C2)(C(F)(F)F)C(F)(F)F` (centres unmarked) [MONOMER 4] it was 9.67; in that of `C=Cc1ccc(O)cc1` [MONOMER 2, vinylphenol], 9.97; in that of `OC(C1CC2C=CC1C2)C(F)(F)C(O)(O)C(F)(F)F` (centres unmarked) [MONOMER 6], 8.33.
In the case of `C=C(C)C(=O)O` [MONOMER 3] it was 4.58.
